Test results reported in patent US12044651B2, “Sensor device and methods” (SCENTIAN BIO LIMITED, priority 2016, dated 2024).

What was measured:
Assay type in all cases: binding
[1] = molecular target: T1, Or10a (Drosophila melanogaster, UniProt Q9VYZ1); assay: CNT-FET sensor covalently functionalized with OR10a nanodiscs (Example 3); conditions: for current response: increasing additions of ligand
T1 sequence (Q9VYZ1 1-406): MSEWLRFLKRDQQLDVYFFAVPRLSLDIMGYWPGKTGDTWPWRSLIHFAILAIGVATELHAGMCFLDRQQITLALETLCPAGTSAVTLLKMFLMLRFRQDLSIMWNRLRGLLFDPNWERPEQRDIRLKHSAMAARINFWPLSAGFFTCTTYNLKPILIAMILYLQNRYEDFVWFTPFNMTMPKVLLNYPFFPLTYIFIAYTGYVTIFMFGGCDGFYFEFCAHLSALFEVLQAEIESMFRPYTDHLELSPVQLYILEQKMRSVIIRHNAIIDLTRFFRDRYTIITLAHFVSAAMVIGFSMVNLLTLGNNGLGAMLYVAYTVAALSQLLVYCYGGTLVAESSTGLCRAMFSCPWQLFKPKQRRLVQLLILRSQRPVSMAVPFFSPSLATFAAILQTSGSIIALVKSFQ
Description: The dispersion was sonicated until a clear solution was obtained. The temperature was kept at 25° C. throughout the sonication process. The thiolpyridine solution was prepared by dissolving 10 mg of 2-Mercaptopyridine (99%, Sigma Aldrich) in 1 ml of methanol. The solution was spun coated on a polydimethylsiloxane (PDMS) surface at 2000 rpm for one minute. Before the spin coating process, the PDMS surface was cleaned by a 50 W Oxygen plasma for 1 minute to improve the wettability. The cleaned substrates were placed upside down on the PDMS surface for three minutes and washed in ethanol to remove the excess thiolpyridine molecules. Then the substrates were transferred into the CNT suspension and immersed into the suspension for 10 minutes. The samples were removed from the suspension and dipped into Ethanol for another 10 minutes to remove the thiolpyridine molecules in the SWNT network. The alignment markers were deposited by defining the markers by photolithography and thermal evaporation of 5 nm Chromium and 50 nm of Gold. The metal Lift off was done by acetone immersion for 15 minutes followed by an Isopropyl alcohol (IPA) wash and N2 blow dry. The result is a uniform thin film CNT network covering the entire substrate surface. The purification procedure is a variation on the one detailed in […] et al. 2013^14. […] The cell pellet was collected by centrifugation at 3800 g for 10 min at room temperature and then resuspended in 40 mL of resuspension buffer A (20 mM Tris/HCl pH 7.5, 100 mM NaCl, 1× protease inhibitor cocktail (Roche Diagnostics GmbH, Germany)), with 25 U/mL Benzonase, then lysed by two passes on an Emulsiflex C5 emulsifier (Avestin, Germany) at 10,000-15,000 psi. The sample was then centrifuged at 1000 g for 5 min to remove whole cells and nuclei. The supernatant was removed and spun at 100,000 g for 1 h at 4° C. The membrane pellet was resuspended in 40 mL of buffer A with 1% w/v detergent (Zwittergent 3-16) and rotated for 1 h at room temperature at 10 rpm. The sample was then centrifuged at 100,000 g for 1 h at 18° C. The supernatant was removed and loaded onto a 1 mL NiNTA column (GE Healthcare) where the zwittergent 3-16 detergent was exchanged to Fos-Choline 14 (FC-14). The column was washed in ten column volumes of buffer B (20 mM Tris/HCl pH 7.5, 3.6 mM FC-14) with 300 mM NaCl and 20 mM imidazole, and a further ten column volumes of buffer B with 100 mM NaCl and 50 mM imidazole. Protein was eluted with four column volumes buffer B with 100 mM NaCl and 500 mM imidazole. Purity was assessed on Coomassie stained SDS-PAGE gels and Western blotting. Purification was completed with a final size exclusion chromatography (SEC) step. […]

[2] = molecular target: T1, Or10a; assay: EIS sensor, Or10a nanodiscs on gold electrode (Example 4)
[3] = molecular target: T2, Or22a (Drosophila melanogaster, UniProt P81909); assay: EIS sensor, Or22a nanodiscs on gold electrode (Example 4)
T2 sequence (P81909 1-397): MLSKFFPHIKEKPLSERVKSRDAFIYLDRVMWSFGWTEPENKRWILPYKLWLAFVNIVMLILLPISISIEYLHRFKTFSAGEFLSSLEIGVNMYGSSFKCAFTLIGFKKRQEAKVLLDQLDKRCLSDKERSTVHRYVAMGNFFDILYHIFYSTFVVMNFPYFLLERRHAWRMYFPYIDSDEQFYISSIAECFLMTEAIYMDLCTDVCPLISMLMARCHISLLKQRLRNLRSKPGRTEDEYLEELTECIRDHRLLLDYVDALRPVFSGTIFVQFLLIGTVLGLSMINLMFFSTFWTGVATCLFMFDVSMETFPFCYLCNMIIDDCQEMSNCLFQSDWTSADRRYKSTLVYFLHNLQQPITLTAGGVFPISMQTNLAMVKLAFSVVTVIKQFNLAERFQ

[4] = molecular target: T1, Or10a; assay: EIS sensor, Or10a liposomes on gold electrode, optimized conditions (Example 5)
[5] = molecular target: T2, Or22a; assay: EIS sensor, Or22a liposomes on gold electrode, optimized conditions (Example 5)

Row | limit of detection ([1]; nanodiscs 1:100 dilution) | concentration at which clear electronic response starts ([1]; real time current measurement mode) | LOD ([2]; EIS) | LOD ([4]; EIS) | EIS response to control ligand [5] | SMILES | current response ([1]; nanodiscs 1:100 dilution) | EIS response to control ligand [2] | EIS response to control ligand [3] | LOD ([3]; EIS) | EIS response to control ligand [4] | LOD ([5]; EIS)
1 |  |  |  |  |  | CCC/C=C/C=O [E2-hexenal] | no response | do not respond | do not respond |  |  | 
2 |  |  |  |  |  | CCCCCC(=O)OC [methyl hexanoate] |  |  |  | < 100 pM | do not respond | 10 fM
3 | below 1 fM | 1 fM | 10 fM | 1 pM | do not respond | COC(=O)c1ccccc1O [methyl salicylate] | consistently large decreases |  |  |  |  | 
